Results taken from PubChem BioAssay AID179 (DTP/NCI, 2004).
Activity calls are given as the source filed them.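 The calls were made as follows: active = compounds giving half or more protection of infected cells from virus-caused growth loss, again on retest; inactive = the rest.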

System: CEM cells HIV-1 protection, formazan growth assay
Assay: NCI AIDS Antiviral Assay
Conditions: for IC50: measured here: growth of uninfected CEM cells
How it was run: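 CEM (human) cells, HIV-1 infected vs uninfected, 5-point dosing, formazan growth read-out. Retest threshold 50% protection.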

| Structure (SMILES) | outcome | EC50 [µM] | IC50 [µM] |
| --- | --- | --- | --- |
| Cc1ccc(-c2c3nc(c(-c4ccc(C)cc4)c4ccc([nH]4)c(-c4ccc(C)cc4)c4nc(c(-c5ccncc5)c5ccc2[nH]5)C=C4)C=C3)cc1.Cc1ccc(-c2c3nc(c(-c4ccc(C)cc4)c4ccc([nH]4)c(-c4ccc(C)cc4)c4nc(c(-c5ccncc5)c5ccc2[nH]5)C=C4)C=C3)cc1.O=S(=O)([O-])C(F)(F)F.[Pt+2].c1ccc([PH+](CCC[PH+](c2ccccc2)c2ccccc2)c2ccccc2)cc1 | inactive | – | – |
| Cn1cc(NC(=O)Nc2cc(C(=O)Nc3cc(C(=O)Nc4ccc(S(=O)(=O)O)c5cc(S(=O)(=O)O)ccc45)n(C)c3)n(C)c2)cc1C(=O)Nc1cc(C(=O)Nc2ccc(S(=O)(=O)O)c3cc(S(=O)(=O)O)ccc23)n(C)c1 | – | 12.3 | 61.7 |
| COC(=O)C1=C(C=O)C2C=CC1C2 (centres undefined) | inactive | – | – |
| O=C1CCCCCCCCCCC1CN1CCCC1 (centres undefined) | inactive | – | – |
| COc1ccc(C(C)=O)cc1CN1CCN(Cc2cc(C(C)=O)ccc2OC)CC1 | – | > 33.1 | > 33.1 |
| Nc1nc(C=O)nc2c1ncn2C1OC(CO)C(O)C1O (centres undefined) | – | > 200 | 30.9 |
| CC(C)(C)c1noc2c1C(=O)c1ccccc1-2 | – | > 200 | 83.2 |
| CC(=O)OCc1cc(-c2nc3ccccc3[nH]c2=O)nn1-c1ccc(Cl)cc1 | – | > 200 | > 200 |
| CCOC(=O)C1CCCCc2sc(N)c(C#N)c21 (centres undefined) | – | > 200 | 191 |
| OCC(O)C(OC1OC(CO)C(O)C(O)C1O)c1nn(-c2ccc(Cl)cc2)c2nc3cc(Cl)c(Cl)cc3nc12 (centres undefined) | inactive | – | – |
| CCOC(=O)C(NC(=O)c1ccccc1)(Nc1ccc(Cl)cc1C(F)(F)F)C(F)(F)F (centres undefined) | – | > 200 | 3.55 |
| O=C1NC23C4C5C6C4C2(N1)C6C53 (centres undefined) | – | > 1550 | 891 |
| COc1cc(N=Nc2ccccc2)c2nccc(C)c2c1N | inactive | – | – |
| CC(C)N(C(=O)C12C3C4C1C1C2C3C41C(=O)C(C)(C)C)C(C)C (centres undefined) | – | > 158 | 138 |
| O=c1[nH]c(=O)n2n1CC(Br)C(Br)C2 (centres undefined) | inactive | – | – |
| O=[N+]([O-])c1ccc(C2CC(c3ccc(NCc4nc5ccccc5[nH]4)cc3)=NO2)cc1 (centres undefined) | – | > 9.12 | > 9.12 |
| CCSC(=O)NNc1nc2ccccc2s1 | – | > 200 | 63.1 |

| Structure (SMILES) | outcome | EC50 [µM] | IC50 [µM] |
| --- | --- | --- | --- |
| O=c1cc(CNC2CC3CCC2C3)[nH]c(=O)[nH]1 (centres undefined) | inactive | – | – |
| O=C(c1ccccc1)C1C(c2ccccc2)S(=O)C(c2ccccc2)CC1(O)c1ccccc1 (centres undefined) | – | > 66.1 | 13.5 |
| NC(=O)C(N/N=C(/C(=O)c1ccccc1)c1ccccc1)c1ccccc1 (centres undefined) | – | > 200 | 44.7 |
| N#Cc1c(C#N)c(SSc2c(C#N)c(C#N)c(N)n2-c2ccccc2)n(-c2ccccc2)c1N | – | > 20 | 1.95 |
| C=CCc1cc(OC)c2c(c1)C(O)CC(c1ccccc1)O2 (centres undefined) | – | > 170 | > 170 |
| O=C(/C=C/c1c(O)ccc2ccccc12)c1ccc2ccccc2c1 | – | > 112 | > 112 |
| Cc1ccccc1NC(=O)C(=O)Cc1cnc2ccccc2n1 | – | > 162 | > 162 |
| SCc1ccc(-c2ccc(CS)cc2)cc1 | – | > 4.27 | > 4.27 |
| N#CCC1C2CC3C(C2=O)C13 (centres undefined) | – | > 200 | > 200 |
| CC(C)c1c(Cc2ccccc2)n(COCCC[Se]c2ccccc2)c(=O)[nH]c1=O | – | 0.0501 | 1.38 |
| N#Cc1c(Cl)/c(=C/O)c(=O)n2c1nc1ccccc12 | – | > 200 | 110 |
| CC(=O)OC1C2C(=C(C)C(=O)O[C@@H]2c2ccoc2)[C@@]2(C)CC3CC(C)(C(=O)O3)C12 (some centres undefined) | – | > 200 | > 200 |
| O=C(O)c1ccc2c3c(ncnc13)-c1ccccc1C2=O | – | > 200 | 14.8 |
| O=S(=O)(O)c1cc[c]([Sb](=[O])([OH])[OH])cc1 | – | 0.661 | 398 |
| CC(C)C(=O)N1Cc2cc(Cl)cc(Cl)c2OC(=O)c2ccccc21 | – | > 29.5 | 3.02 |
| Cc1nc(-c2cc3c(ccc4ccccc43)oc2=O)cs1 | – | > 100 | 95.5 |
